Data as given in ChEMBL document CHEMBL3745696, “Synthesis and cytotoxic activity of novel hexahydropyrrolo[2,3-b]indole imidazolium salts” (Bioorg Med Chem Lett, 2016).

Experiments:
Type in all cases: functional, cell-based
[1] = Cytotoxicity against human SMMC7721 cells by MTT assay; conditions: SMMC-7721
A549 = test: Cytotoxicity against human A549 cells by MTT assay
SW480 = test: Cytotoxicity against human SW480 cells by MTT assay
[2] = Cytotoxicity against human HL60 cells by MTT assay; conditions: HL-60
MCF7 = test: Cytotoxicity against human MCF7 cells by MTT assay

COc1ccc(C(=O)C[n+]2c(C)n(CC(=O)N3CCC4(C)c5ccccc5N(Cc5ccccc5)C34)c3ccccc32)cc1 (stereo not given)
IC50 [1]: 8.83 µM
IC50 (A549): 12.5 µM
IC50 (SW480): 8.38 µM
IC50 [2]: 4.18 µM
IC50 (MCF7): 6.99 µM

Cc1n(CC(=O)N2CCC3(C)c4ccccc4N(C)C23)cc[n+]1CC(=O)c1ccccc1 (stereo not given)
IC50 [1]: > 20 µM
IC50 (A549): > 20 µM
IC50 (SW480): > 20 µM
IC50 [2]: > 20 µM
IC50 (MCF7): > 20 µM

CN1c2ccccc2C2(C)CCN(C(=O)Cn3c[n+](CC(=O)c4ccccc4)c4ccccc43)C12 (stereo not given)
IC50 [1]: > 20 µM
IC50 (A549): > 20 µM
IC50 (SW480): > 20 µM
IC50 [2]: > 20 µM
IC50 (MCF7): > 20 µM

COc1ccc(C(=O)C[n+]2cn(CC(=O)N3CCC4(C)c5ccccc5N(Cc5ccccc5)C34)c3cc(C)c(C)cc32)cc1 (stereo not given)
IC50 [1]: 5.07 µM
IC50 (A549): 7.4 µM
IC50 (SW480): 1.5 µM
IC50 [2]: 1.64 µM
IC50 (MCF7): 2.35 µM

CN1c2ccccc2C2(C)CCN(C(=O)Cn3cc[n+](CC(=O)c4ccccc4)c3)C12 (stereo not given)
IC50 [1]: > 20 µM
IC50 (A549): > 20 µM
IC50 (SW480): > 20 µM
IC50 [2]: > 20 µM
IC50 (MCF7): > 20 µM

CN1c2ccccc2C2(C)CCN(C(=O)Cn3c[n+](CC(=O)c4ccc5ccccc5c4)c4ccccc43)C12 (stereo not given)
IC50 [1]: > 20 µM
IC50 (A549): > 20 µM
IC50 (SW480): 8.56 µM
IC50 [2]: 5.98 µM
IC50 (MCF7): 11 µM

COc1ccc(C(=O)C[n+]2ccn(CC(=O)N3CCC4(C)c5ccccc5N(C)C34)c2)cc1 (stereo not given)
IC50 [1]: > 20 µM
IC50 (A549): > 20 µM
IC50 (SW480): > 20 µM
IC50 [2]: > 20 µM
IC50 (MCF7): > 20 µM

Cc1n(CC(=O)N2CCC3(C)c4ccccc4N(C)C23)cc[n+]1CC(=O)c1ccc(Br)cc1 (stereo not given)
IC50 [1]: > 20 µM
IC50 (A549): > 20 µM
IC50 (SW480): > 20 µM
IC50 [2]: > 20 µM
IC50 (MCF7): > 20 µM

CN1c2ccccc2C2(C)CCN(C(=O)Cn3cc[n+](CC(=O)c4ccc(Br)cc4)c3)C12 (stereo not given)
IC50 [1]: > 20 µM
IC50 (A549): > 20 µM
IC50 (SW480): > 20 µM
IC50 [2]: > 20 µM
IC50 (MCF7): > 20 µM

COc1ccc(C(=O)C[n+]2cn(CC(=O)N3CCC4(C)c5ccccc5N(C)C34)c3ccccc32)cc1 (stereo not given)
IC50 [1]: > 20 µM
IC50 (A549): > 20 µM
IC50 (SW480): > 20 µM
IC50 [2]: > 20 µM
IC50 (MCF7): > 20 µM

CN1c2ccccc2C2(C)CCN(C(=O)Cn3c[n+](CC(=O)c4ccc(Br)cc4)c4ccccc43)C12 (stereo not given)
IC50 [1]: > 20 µM
IC50 (A549): > 20 µM
IC50 (SW480): > 20 µM
IC50 [2]: > 20 µM
IC50 (MCF7): > 20 µM

CN1c2ccccc2C2(C)CCN(C(=O)Cn3cc[n+](CC(=O)c4ccc5ccccc5c4)c3)C12 (stereo not given)
IC50 [1]: > 20 µM
IC50 (A549): > 20 µM
IC50 (SW480): > 20 µM
IC50 [2]: > 20 µM
IC50 (MCF7): > 20 µM

Cc1n(CC(=O)N2CCC3(C)c4ccccc4N(Cc4ccccc4)C23)c2ccccc2[n+]1CC(=O)c1ccccc1 (stereo not given)
IC50 [1]: 9.28 µM
IC50 (A549): 14.7 µM
IC50 (SW480): 8.31 µM
IC50 [2]: 4.64 µM
IC50 (MCF7): 6.35 µM

Cc1n(CC(=O)N2CCC3(C)c4ccccc4N(C)C23)c2ccccc2[n+]1CC(=O)c1ccccc1 (stereo not given)
IC50 [1]: > 20 µM
IC50 (A549): > 20 µM
IC50 (SW480): > 20 µM
IC50 [2]: > 20 µM
IC50 (MCF7): > 20 µM

CN1c2ccccc2C2(C)CCN(C(=O)Cn3c[n+](Cc4ccccc4Br)c4ccccc43)C12 (stereo not given)
IC50 [1]: > 20 µM
IC50 (A549): > 20 µM
IC50 (SW480): > 20 µM
IC50 [2]: 5.07 µM
IC50 (MCF7): 14 µM

COc1ccc(C(=O)C[n+]2ccn(CC(=O)N3CCC4(C)c5ccccc5N(C)C34)c2C)cc1 (stereo not given)
IC50 [1]: > 20 µM
IC50 (A549): > 20 µM
IC50 (SW480): > 20 µM
IC50 [2]: > 20 µM
IC50 (MCF7): > 20 µM

Cc1cc2c(cc1C)[n+](CC(=O)c1ccccc1)cn2CC(=O)N1CCC2(C)c3ccccc3N(Cc3ccccc3)C12 (stereo not given)
IC50 [1]: 5.78 µM
IC50 (A549): 6.54 µM
IC50 (SW480): 7.09 µM
IC50 [2]: 1.47 µM
IC50 (MCF7): 3.51 µM

Cc1cc2c(cc1C)[n+](Cc1ccc(Br)cc1)cn2CC(=O)N1CCC2(C)c3ccccc3N(Cc3ccccc3)C12 (stereo not given)
IC50 [1]: 3.59 µM
IC50 (A549): 6.37 µM
IC50 (SW480): 1.41 µM
IC50 [2]: 1.29 µM
IC50 (MCF7): 1.72 µM

Cc1cc2c(cc1C)[n+](Cc1ccc3ccccc3c1)cn2CC(=O)N1CCC2(C)c3ccccc3N(Cc3ccccc3)C12 (stereo not given)
IC50 [1]: 2.27 µM
IC50 (A549): 4.8 µM
IC50 (SW480): 1.76 µM
IC50 [2]: 1.21 µM
IC50 (MCF7): 1.68 µM

Cc1ccc(C[n+]2cn(CC(=O)N3CCC4(C)c5ccccc5N(Cc5ccccc5)C34)c3cc(C)c(C)cc32)cc1 (stereo not given)
IC50 [1]: 1.74 µM
IC50 (A549): 4.84 µM
IC50 (SW480): 1.77 µM
IC50 [2]: 1.23 µM
IC50 (MCF7): 1.86 µM

Cc1n(CC(=O)N2CCC3(C)c4ccccc4N(Cc4ccccc4)C23)c2ccccc2[n+]1CC(=O)c1ccc(Br)cc1 (stereo not given)
IC50 [1]: 5.99 µM
IC50 (A549): 9.87 µM
IC50 (SW480): 8.86 µM
IC50 [2]: 4.25 µM
IC50 (MCF7): 7.37 µM

Cc1n(CC(=O)N2CCC3(C)c4ccccc4N(C)C23)cc[n+]1Cc1ccc(Br)cc1 (stereo not given)
IC50 [1]: > 20 µM
IC50 (A549): > 20 µM
IC50 (SW480): > 20 µM
IC50 [2]: > 20 µM
IC50 (MCF7): > 20 µM

Cc1ccc(C[n+]2c(C)n(CC(=O)N3CCC4(C)c5ccccc5N(Cc5ccccc5)C34)c3ccccc32)cc1 (stereo not given)
IC50 [1]: 2.97 µM
IC50 (A549): 6.63 µM
IC50 (SW480): 1.62 µM
IC50 [2]: 1.25 µM
IC50 (MCF7): 1.98 µM

Cc1n(CC(=O)N2CCC3(C)c4ccccc4N(C)C23)cc[n+]1CC(=O)c1ccc2ccccc2c1 (stereo not given)
IC50 [1]: > 20 µM
IC50 (A549): > 20 µM
IC50 (SW480): > 20 µM
IC50 [2]: > 20 µM
IC50 (MCF7): > 20 µM

CN1c2ccccc2C2(C)CCN(C(=O)Cn3c[n+](Cc4ccc(Br)cc4)c4ccccc43)C12 (stereo not given)
IC50 [1]: > 20 µM
IC50 (A549): > 20 µM
IC50 (SW480): > 20 µM
IC50 [2]: 6.96 µM
IC50 (MCF7): 8.93 µM

CN1c2ccccc2C2(C)CCN(C(=O)Cn3c[n+](Cc4ccc5ccccc5c4)c4ccccc43)C12 (stereo not given)
IC50 [1]: 7.45 µM
IC50 (A549): 14.1 µM
IC50 (SW480): 7.95 µM
IC50 [2]: 2.8 µM
IC50 (MCF7): 6.86 µM

Cc1n(CC(=O)N2CCC3(C)c4ccccc4N(Cc4ccccc4)C23)c2ccccc2[n+]1Cc1ccccc1Br (stereo not given)
IC50 [1]: 2.27 µM
IC50 (A549): 7.34 µM
IC50 (SW480): 4.62 µM
IC50 [2]: 1.33 µM
IC50 (MCF7): 2.5 µM

Cc1ccc(C[n+]2cn(CC(=O)N3CCC4(C)c5ccccc5N(C)C34)c3ccccc32)cc1 (stereo not given)
IC50 [1]: > 20 µM
IC50 (A549): > 20 µM
IC50 (SW480): > 20 µM
IC50 [2]: 5.13 µM
IC50 (MCF7): 9.47 µM

Cc1cc2c(cc1C)[n+](CC(=O)c1ccc(Br)cc1)cn2CC(=O)N1CCC2(C)c3ccccc3N(Cc3ccccc3)C12 (stereo not given)
IC50 [1]: 6.22 µM
IC50 (A549): 8.01 µM
IC50 (SW480): 1.68 µM
IC50 [2]: 1.55 µM
IC50 (MCF7): 2.78 µM

Cc1ccc(C[n+]2ccn(CC(=O)N3CCC4(C)c5ccccc5N(C)C34)c2C)cc1 (stereo not given)
IC50 [1]: > 20 µM
IC50 (A549): > 20 µM
IC50 (SW480): > 20 µM
IC50 [2]: > 20 µM
IC50 (MCF7): > 20 µM

Cc1n(CC(=O)N2CCC3(C)c4ccccc4N(Cc4ccccc4)C23)c2ccccc2[n+]1Cc1ccc(Br)cc1 (stereo not given)
IC50 [1]: 5.1 µM
IC50 (A549): 7.91 µM
IC50 (SW480): 6.11 µM
IC50 [2]: 1.35 µM
IC50 (MCF7): 2.4 µM

Cc1ccc(C[n+]2cn(CC(=O)N3CCC4(C)c5ccccc5N(Cc5ccccc5)C34)c3ccccc32)cc1 (stereo not given)
IC50 [1]: 4.98 µM
IC50 (A549): 6.23 µM
IC50 (SW480): 6.57 µM
IC50 [2]: 1.2 µM
IC50 (MCF7): 2.72 µM

CN1c2ccccc2C2(C)CCN(C(=O)Cn3cc[n+](Cc4ccc(Br)cc4)c3)C12 (stereo not given)
IC50 [1]: > 20 µM
IC50 (A549): > 20 µM
IC50 (SW480): > 20 µM
IC50 [2]: > 20 µM
IC50 (MCF7): > 20 µM
